Test results taken from article PMC9136306 (The Journal of General Physiology, 2022).
“And” between values parts separate entries of the source, which are not always exact repeats. Equal entries are not always repeated.

Key:
human α7-AChR = human α7-AChR (Homo sapiens, UniProt P36544); assay: cell-based; format: binding; settings: for IC50: Unlabeled-ligand half-competition concentration
[1] = target: Human–C. elegans α7-AChR–β-GluCl ECD–TMD chimera (UniProt P36544+Q17328); assay: cell-based; format: binding
[2] = target: Chicken–C. elegans α7-AChR–β-GluCl ECD–TMD chimera (UniProt P22770+Q17328); assay: cell-based; format: binding
[3] = target: T1, Human–C. elegans α7-AChR–β-GluCl chimera S56T + S172T (Homo sapiens, UniProt P36544, S172T/S56T)
[4] = target: T1, Human–C. elegans α7-AChR–β-GluCl chimera S56T + S172T; assay: biochemical; settings: Unlabeled-ligand half-competition concentration

T1 sequence (Q17328 245-434): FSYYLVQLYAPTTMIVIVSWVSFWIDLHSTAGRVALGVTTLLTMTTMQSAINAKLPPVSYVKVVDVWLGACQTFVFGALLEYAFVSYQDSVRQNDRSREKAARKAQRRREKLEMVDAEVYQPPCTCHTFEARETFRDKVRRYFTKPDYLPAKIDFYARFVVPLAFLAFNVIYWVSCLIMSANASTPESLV
T1 sequence (P36544 23-230 S56T/S172T): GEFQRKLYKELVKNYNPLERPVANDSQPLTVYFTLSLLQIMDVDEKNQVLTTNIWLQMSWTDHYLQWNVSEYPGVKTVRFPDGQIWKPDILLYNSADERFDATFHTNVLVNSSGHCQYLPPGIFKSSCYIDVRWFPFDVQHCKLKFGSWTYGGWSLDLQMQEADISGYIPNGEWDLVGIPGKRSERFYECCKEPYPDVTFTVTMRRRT
Chain of Human–C. elegans α7-AChR–β-GluCl ECD–TMD chimera (P36544 whole entry, looked up, change not shown, the tested form may be a part): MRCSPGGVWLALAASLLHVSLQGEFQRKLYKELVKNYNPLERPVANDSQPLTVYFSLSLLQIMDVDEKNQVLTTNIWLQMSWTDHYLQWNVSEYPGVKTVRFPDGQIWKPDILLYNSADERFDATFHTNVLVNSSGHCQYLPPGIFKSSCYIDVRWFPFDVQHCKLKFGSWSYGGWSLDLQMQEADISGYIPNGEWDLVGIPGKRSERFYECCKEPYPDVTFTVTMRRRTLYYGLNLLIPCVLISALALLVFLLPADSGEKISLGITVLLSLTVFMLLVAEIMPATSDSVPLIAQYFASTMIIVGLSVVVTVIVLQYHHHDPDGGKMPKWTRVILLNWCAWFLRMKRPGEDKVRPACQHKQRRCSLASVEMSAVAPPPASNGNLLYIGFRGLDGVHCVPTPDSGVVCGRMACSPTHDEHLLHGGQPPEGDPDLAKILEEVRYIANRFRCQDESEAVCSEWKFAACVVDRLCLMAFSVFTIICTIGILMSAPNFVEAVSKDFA
Chain of Human–C. elegans α7-AChR–β-GluCl ECD–TMD chimera (Q17328 whole entry, looked up, change not shown, the tested form may be a part): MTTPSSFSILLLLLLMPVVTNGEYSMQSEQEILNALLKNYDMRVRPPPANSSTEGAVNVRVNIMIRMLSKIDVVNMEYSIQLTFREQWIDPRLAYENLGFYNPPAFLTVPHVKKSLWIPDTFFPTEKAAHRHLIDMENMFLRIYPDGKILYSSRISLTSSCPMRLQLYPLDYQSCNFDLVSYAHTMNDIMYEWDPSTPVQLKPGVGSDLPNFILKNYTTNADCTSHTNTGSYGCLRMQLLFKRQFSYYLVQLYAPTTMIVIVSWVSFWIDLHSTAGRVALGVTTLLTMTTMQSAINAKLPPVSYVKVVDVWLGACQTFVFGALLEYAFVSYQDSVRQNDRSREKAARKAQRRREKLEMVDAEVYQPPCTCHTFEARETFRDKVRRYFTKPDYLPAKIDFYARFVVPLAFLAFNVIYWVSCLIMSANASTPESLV
Chain of human α7-AChR (P36544 23-502): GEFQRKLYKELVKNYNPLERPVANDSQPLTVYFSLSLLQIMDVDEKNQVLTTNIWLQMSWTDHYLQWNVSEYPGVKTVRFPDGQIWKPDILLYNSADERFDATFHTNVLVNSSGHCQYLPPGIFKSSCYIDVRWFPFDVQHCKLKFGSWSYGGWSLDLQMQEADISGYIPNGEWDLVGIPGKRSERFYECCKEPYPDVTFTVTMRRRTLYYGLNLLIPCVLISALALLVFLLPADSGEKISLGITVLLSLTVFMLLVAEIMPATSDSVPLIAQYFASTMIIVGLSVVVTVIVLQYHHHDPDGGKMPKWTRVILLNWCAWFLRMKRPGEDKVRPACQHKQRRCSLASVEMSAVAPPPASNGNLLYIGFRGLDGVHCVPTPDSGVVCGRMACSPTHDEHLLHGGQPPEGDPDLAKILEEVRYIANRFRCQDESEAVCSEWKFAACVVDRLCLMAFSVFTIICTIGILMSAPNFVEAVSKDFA
Chain of Chicken–C. elegans α7-AChR–β-GluCl ECD–TMD chimera (P22770 whole entry, looked up, stated change not applied, the tested form may be a part): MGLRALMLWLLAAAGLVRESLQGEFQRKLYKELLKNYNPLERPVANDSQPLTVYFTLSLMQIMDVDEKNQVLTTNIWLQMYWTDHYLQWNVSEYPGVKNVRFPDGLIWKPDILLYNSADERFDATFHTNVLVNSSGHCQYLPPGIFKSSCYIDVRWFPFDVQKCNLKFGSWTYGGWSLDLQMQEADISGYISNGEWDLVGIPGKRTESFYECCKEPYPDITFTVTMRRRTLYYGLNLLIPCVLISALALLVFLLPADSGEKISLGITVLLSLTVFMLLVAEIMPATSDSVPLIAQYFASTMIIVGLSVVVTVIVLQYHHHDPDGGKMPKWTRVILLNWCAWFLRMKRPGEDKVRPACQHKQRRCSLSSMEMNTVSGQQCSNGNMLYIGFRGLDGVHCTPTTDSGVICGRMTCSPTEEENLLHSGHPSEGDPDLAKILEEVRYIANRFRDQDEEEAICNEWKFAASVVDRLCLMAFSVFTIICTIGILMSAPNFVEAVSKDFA
Chain of Chicken–C. elegans α7-AChR–β-GluCl ECD–TMD chimera (Q17328 whole entry, looked up, stated change not applied, the tested form may be a part): as the sequence (Q17328 whole entry, looked up, change not shown, the tested form may be a part) above

| SMILES | Unlabeled-ligand nH (Hill coefficient, competition) (human α7-AChR) | IC50 (human α7-AChR) [nM] | Unlabeled-ligand nH (Hill coefficient, competition) [1] | IC50 ([1]; Unlabeled-ligand half-competition concentration) | IC50 [2] [nM] | Unlabeled-ligand nH (Hill coefficient, competition) [2] | difference between closed-state affinities of the chicken and human α7-AChR ECDs [2] [fold] | Unlabeled-ligand nH (Hill coefficient, competition) [3] | IC50 [4] | Hill coefficient, individual curve fitted separately (human α7-AChR) |
| --- | --- | --- | --- | --- | --- | --- | --- | --- | --- | --- |
| C[N+](C)(C)CCO [Choline, choline] | 1.28 ± 0.08 | 204000 ± 16000 |  |  |  |  |  |  |  |  |
| CCN1C[C@]2(COC(=O)c3ccccc3N3C(=O)C[C@H](C)C3=O)CC[C@H](OC)[C@@]34[C@@H]5C[C@H]6[C@H](OC)[C@@H]5[C@](O)(C[C@@H]6OC)[C@@](O)([C@@H](OC)[C@H]23)[C@@H]14 [MLA, methyllycaconitine] | 0.95 ± 0.05 | 88.9 ± 8.54 | 1.01 ± 0.05 | 68 nM and 68.3 nM | 4.9 ± 0.52 | 0.990 ± 0.07 | ~14 | 1.04 ± 0.08 | 32 nM and 32.5 nM |  |
| CN1CCC[C@H]1c1cccnc1 [Nicotine, nicotine] | 1.41 ± 0.06 |  | 1.08 ± 0.06 |  | 3680 ± 110 | 1.80 ± 0.07 |  |  |  | 1.50 ± 0.001 and 1.28 ± 0.001 and 1.42 ± 0.13 |
